Legend:
[1] = tested on: Arabidopsis thaliana afb5‐1 mutant line; format: in vivo; conditions: for GR50 (DW % of NT) / GR50 (visual injury): afb5‐1, foliar application; for GR50 (DW % of NT): dry weight at 14 DAT; for Resistance ratio (afb5‐1 vs WT), DW: ratio of dry weight GR50 values; for Resistance ratio (afb5‐1 vs WT), DW / Resistance ratio (afb5‐1 vs WT), visual injury: foliar application; for Resistance ratio (afb5‐1 vs WT), visual injury: ratio of visual injury GR50 values
Experimental: (§1) Bioassays were carried out with the model species Arabidopsis thaliana. The wild type (WT) Col‐0 line was compared to an afb5‐1 mutant line in a Col‐0 background containing a missense mutation of R609K.[11] A. thaliana seeds were sown on Metro‐mix 360 potting mix (Sungro Horticulture) supplemented with vermiculite and stratified for 3 days at 4 °C in the dark. Flats were moved to a growth chamber (as above) and a plastic lid was placed on the flat. On germination, the lid was removed. After 2 weeks in the growth chamber, seedlings were transplanted into 3‐in. pots with Metro‐mix 360 potting mix and moved to a greenhouse. The greenhouse was maintained at a day/night temperature of 23/22 °C and supplemented with light to complete a 16 h photoperiod. Plants were allowed to recover from transplanting for 1 week prior to applications. A. thaliana seedlings were sprayed with test compounds at five rates with four replications. Tests included nontreated and solvent check controls. Individual compound doses varied and were based on plate test data or anecdotal potency. Compounds were formulated as technical material and were initially dissolved in 1 part 97:3 (v/v) acetone: dimethylsufoxide (DMSO) followed by 5 parts 1.5% (v/v) Agridex crop oil concentrate in distilled water to give a final concentration of 1.25% (v/v) Agridex. Formulated compounds were sprayed at a volume of 187 L ha^−1 at a spray height of 43 cm above the plants with an overhead Mandel track sprayer set with 8002 E Tee jet nozzle. Plants were treated at rosette stage just prior to or at initiation of bolting. After spray application, plants were allowed to dry then moved back to the greenhouse. Plants were grown in the greenhouse (same conditions as above) for 2 weeks until harvest. Visual injury/growth reduction observations were made at 7 and 14 days after treatment (DAT) and scored where 0% = no growth reduction and 100% = complete growth reduction or plant death. At 14 DAT the plants were harvested and dried to collect dry weight (DW) biomass.
(§2) The data collected in the foliar application of compounds generated a measure of sensitivity or dose response. The data was analyzed by regression in JMP 10.0 and fit to a nonlinear exponential three parameter fit model:
(§3) where a is the asymptote, b is the scale and c is the rate of growth. The model was used to determine the herbicidal dose that caused 50% reduction in growth (GR50). GR50 values were compared between mutant and WT to give an indication of fold resistance over WT (Table 3). A log‐logistic model[24] was also used to fit the data and gave similar GR50 values with greater standard errors without changing the pattern of responsiveness.

[2] = tested on: Arabidopsis thaliana wild type (WT) Col‐0; test: Foliar efficacy bioassay, wild type; format: in vivo; conditions: foliar application; for GR50 (DW % of NT): dry weight at 14 DAT
Experimental: as §1, §2, §3

AtTIR1 [3] = target: T1, AtTIR1 (Arabidopsis thaliana, UniProt Q570C0); test: biochemical; format: binding; conditions: for Kd: averaged equilibrium dissociation constant, SPR single cycle kinetics, read-out: Ave KD
T1 construct: His10 (N, cleaved yes); eGFP (N, cleaved yes); FLAG (N, cleaved yes); made in house; host or cells: baculovirus; Trichoplusia ni Hi5 cells (virus generated in Sf9)
T1 sequence (Q570C0 whole entry, other chains not shown): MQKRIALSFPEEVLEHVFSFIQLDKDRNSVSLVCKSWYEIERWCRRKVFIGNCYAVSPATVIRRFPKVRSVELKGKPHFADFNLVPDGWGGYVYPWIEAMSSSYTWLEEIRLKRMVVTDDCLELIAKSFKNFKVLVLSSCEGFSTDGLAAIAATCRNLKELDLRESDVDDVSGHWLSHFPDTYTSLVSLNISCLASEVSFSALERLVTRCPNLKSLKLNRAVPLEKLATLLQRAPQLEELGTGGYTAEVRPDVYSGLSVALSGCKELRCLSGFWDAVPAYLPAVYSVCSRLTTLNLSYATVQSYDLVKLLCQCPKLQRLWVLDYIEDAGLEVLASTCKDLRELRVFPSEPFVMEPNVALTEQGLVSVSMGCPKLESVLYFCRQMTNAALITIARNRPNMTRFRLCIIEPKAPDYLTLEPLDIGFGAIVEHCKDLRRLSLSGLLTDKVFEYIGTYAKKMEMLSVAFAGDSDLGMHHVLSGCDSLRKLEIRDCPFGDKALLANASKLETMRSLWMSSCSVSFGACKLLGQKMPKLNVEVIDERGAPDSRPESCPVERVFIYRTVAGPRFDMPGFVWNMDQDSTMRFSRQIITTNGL
T1 sequence (Q39255 whole entry partner, other chains not shown): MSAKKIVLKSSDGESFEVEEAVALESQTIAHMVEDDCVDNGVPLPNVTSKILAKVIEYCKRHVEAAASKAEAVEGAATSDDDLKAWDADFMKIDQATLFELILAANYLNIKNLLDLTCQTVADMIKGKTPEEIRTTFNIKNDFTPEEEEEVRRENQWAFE
Experimental: (§4) Auxin binding assays using surface plasmon resonance (SPR) were performed on a Biacore 2000 as described previously.[3], [18], [23] Protein was stored on ice and protein concentrations were assayed by A280 nm measurement (nanodrop, Thermo Scientific). Briefly, AtAux/IAA7 degron peptide was immobilized on streptavidin‐coated SPR chips, and binding was measured in the presence of IAA or auxin analogue by recruitment of the TIR1/AFB protein from solution as the co‐receptor complex formed on the chip. Kinetic analyses were performed by single cycle kinetics on a Biacore T200 (Cytiva Life Sciences), titrating compounds against a fixed concentration of TIR1 before injection. The degron peptide density on the chips was controlled so that R max < 300 Response UNits (RU).

AtAFB5 [4] = target: T2, AtAFB5 (Arabidopsis thaliana, UniProt Q9LTX2); test: biochemical; format: binding; conditions: averaged equilibrium dissociation constant, SPR single cycle kinetics; read-out: Ave KD
T2 construct: His10 (N, cleaved yes); eGFP (N, cleaved yes); FLAG (N, cleaved yes); made in house; host or cells: baculovirus; Trichoplusia ni Hi5 cells (virus generated in Sf9)
T2 sequence (Q9LTX2 whole entry, other chains not shown): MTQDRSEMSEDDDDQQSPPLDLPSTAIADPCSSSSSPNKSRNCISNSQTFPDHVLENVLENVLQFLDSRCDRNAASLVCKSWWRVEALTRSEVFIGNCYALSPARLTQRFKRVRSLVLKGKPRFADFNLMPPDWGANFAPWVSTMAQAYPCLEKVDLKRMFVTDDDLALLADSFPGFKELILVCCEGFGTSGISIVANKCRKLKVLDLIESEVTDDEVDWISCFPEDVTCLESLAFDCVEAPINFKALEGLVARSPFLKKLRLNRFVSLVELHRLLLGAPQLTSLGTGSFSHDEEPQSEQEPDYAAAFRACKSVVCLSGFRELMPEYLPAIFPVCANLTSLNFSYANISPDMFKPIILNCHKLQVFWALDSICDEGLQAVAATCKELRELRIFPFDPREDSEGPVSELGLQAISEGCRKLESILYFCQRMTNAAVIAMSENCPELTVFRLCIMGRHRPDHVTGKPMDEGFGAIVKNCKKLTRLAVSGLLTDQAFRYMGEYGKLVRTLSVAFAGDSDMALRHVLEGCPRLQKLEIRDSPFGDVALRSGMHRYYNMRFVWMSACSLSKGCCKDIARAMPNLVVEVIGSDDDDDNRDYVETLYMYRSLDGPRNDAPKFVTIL
T2 sequence (Q39255 whole entry partner, other chains not shown): as the sequence (Q39255 whole entry partner, other chains not shown) above
Experimental: as §4

AtTIR1 [5] = target: T1, AtTIR1; test: SPR relative binding (co-receptor complex formation with Aux/IAA7 degron), AtTIR1; conditions: 50 μM compound, compared to IAA
Experimental: as §4

AtAFB2 [6] = target: T3, AtAFB2 (Arabidopsis thaliana, UniProt Q9LW29); test: SPR relative binding (co-receptor complex formation with Aux/IAA7 degron), AtAFB2; conditions: 50 μM compound, compared to IAA
T3 construct: His10 (N, cleaved yes); eGFP (N, cleaved yes); FLAG (N, cleaved yes); made in house; host or cells: baculovirus; Trichoplusia ni Hi5 cells (virus generated in Sf9)
T3 sequence (Q9LW29 whole entry, other chains not shown): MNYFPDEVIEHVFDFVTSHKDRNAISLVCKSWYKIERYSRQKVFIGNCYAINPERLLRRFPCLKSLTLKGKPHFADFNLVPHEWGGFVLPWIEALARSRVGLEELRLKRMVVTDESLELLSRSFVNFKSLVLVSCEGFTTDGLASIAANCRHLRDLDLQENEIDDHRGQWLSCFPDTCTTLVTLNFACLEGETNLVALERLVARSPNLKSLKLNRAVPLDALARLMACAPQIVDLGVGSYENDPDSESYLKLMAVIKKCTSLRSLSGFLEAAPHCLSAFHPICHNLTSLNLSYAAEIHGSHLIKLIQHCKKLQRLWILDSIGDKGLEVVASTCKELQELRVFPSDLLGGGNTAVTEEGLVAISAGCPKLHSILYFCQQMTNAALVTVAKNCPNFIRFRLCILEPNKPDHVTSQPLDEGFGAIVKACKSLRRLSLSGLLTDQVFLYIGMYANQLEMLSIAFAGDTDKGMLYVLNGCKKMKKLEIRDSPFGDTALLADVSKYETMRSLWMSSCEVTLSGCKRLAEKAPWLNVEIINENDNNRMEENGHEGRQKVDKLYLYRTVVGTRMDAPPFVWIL
T3 sequence (Q39255 whole entry partner, other chains not shown): as the sequence (Q39255 whole entry partner, other chains not shown) above
Experimental: as §4

AtAFB2 [7] = target: T3, AtAFB2; test: SPR single cycle kinetics, AtAFB2; format: binding; conditions: averaged equilibrium dissociation constant, SPR single cycle kinetics; read-out: Ave KD
Experimental: as §4

AtAFB5 [8] = target: T2, AtAFB5; test: SPR relative binding (co-receptor complex formation with Aux/IAA7 degron), AtAFB5; conditions: 50 μM compound, compared to IAA
Experimental: as §4

[9] = tested on: Arabidopsis thaliana afb5‐1 seedlings; test: Root growth inhibition bioassay, afb5‐1 mutant; format: in vivo; conditions: afb5‐1 vs WT dose-response, 8 days
Experimental: A. thaliana seed was surface sterilized in 10 mL of 50% bleach and two drops of Tween‐20 for 12 min and rinsed six times with sterile water. Sterile growth media consisted of half‐strength Murashige and Skoog salts supplemented with 0.4% agar and 0.8% sucrose. In a laminar flow hood, 8 mL of liquid media was transferred to sterile test‐tubes placed in a heat block to maintain media in a liquid state. Compounds were previously diluted in 50/50 DMSO/water to a known molar concentration. A 50‐μL aliquot of diluted compound was added to each tube to give a specified final concentration, normally 10, 1, 0.1, 0.01 or 0.001 μM. A single tube was treated with solvent only as a control. Test compounds were mixed into the media by pipetting up and down three times, then 6 mL of media with test compound was added to one well in a six‐well plate, working from low‐to‐high concentration, and allowed to solidify in the laminar flow hood. Approximately 15 sterilized seeds were placed on the solidified surface and the remaining 2 mL of liquid media was added to cover and disperse seeds. Plates were sealed with paraffin and moved to a Conviron growth chamber set to 60% humidity, 25 °C and light intensity 100 μE m^2 s^−1 with a 16 h photoperiod. After 8 days primary root measurements of five random plants were taken by removing plants from media and measuring with a ruler. Treatments were compared against the solvent control to determine percentage root growth inhibition. Each experiment was run twice and averages were combined for analysis.

Row | Compound | GR50 (DW % of NT) [1] [g ai ha^−1] | GR50 (visual injury) [1] [g ai ha^−1] | Resistance ratio (afb5‐1 vs WT), DW [1] | Resistance ratio (afb5‐1 vs WT), visual injury [1] | GR50 (DW % of NT) [2] [g ai ha^−1] | GR50 (visual injury) [2] [g ai ha^−1] | Kd (AtTIR1 [3]) [µM] | Kd (AtAFB5 [4]) [µM] | Relative binding (in words) (AtTIR1 [5]) | Relative binding (in words) (AtAFB2 [6]) | Kd (AtAFB2 [7]) [µM] | Relative binding (in words) (AtAFB5 [8]) | Resistance of afb5‐1 in root growth inhibition (in words) [9] | Fold higher affinity for TIR1 (AtTIR1 [3]; from KD values, TIR1 versus other receptors) [fold]
1 | Nc1c(Cl)c(F)nc(OCC(=O)O)c1Cl [Fluroxypyr] | 84.1 | 310 | 2.4 | 1.3 | 35.7 | 234 | 18 | 95 | lower binding than IAA | lower binding than IAA | 45 | lower binding than IAA | – | –
2 | Nc1cc(Cl)nc(C(=O)O)c1Cl [Aminopyralid] | 68.7 | – | 20.2 | – | 3.4 | 40.1 | – | – | relatively low binding | relatively low binding | – | relatively low binding | considerable resistance | –
3 | O=C(O)Cc1cccc2ccccc12 [1‐NAA, 1‐napthaleneacetic acid] | – | – | – | – | – | – | – | – | – | – | – | – | No resistance | –
4 | COc1c(Cl)ccc(Cl)c1C(=O)O [Dicamba] | 60.8 | 290 | 3.7 | 1.7 | 16.5 | 169 | – | – | low binding | low binding | – | low binding | No resistance | –
5 | COc1c(Cl)ccc(-c2nc(C(=O)O)c(Cl)c(N)c2F)c1F [Florpyrauxifen] | 1 | 5.2 | 10 | 7.4 | 0.1 | 0.7 | 62 | 2.7 | – | – | 105 | – | considerable resistance | –
6 | O=C(O)COc1nc(Cl)c(Cl)cc1Cl [Triclopyr] | 18.4 | 41.8 | 3.9 | 1.3 | 4.7 | 31.8 | – | – | lower binding than IAA | lower binding than IAA | – | lower binding than IAA | – | –
7 | Cc1cc(Cl)ccc1OCC(=O)O [MCPA, 2‐methyl‐4‐chlorophenoxyacetic acid] | – | – | – | – | – | – | – | – | lower binding | lower binding | – | lower binding | – | –
8 | O=C(O)c1nc(Cl)ccc1Cl [Clopyralid] | 3999 | 4259 | – | 1.6 | 497 | 2698 | – | – | relatively low binding | relatively low binding | – | relatively low binding | considerable resistance | –
9 | Nc1nc(C2CC2)nc(C(=O)O)c1Cl [Aminocyclopyrachlor] | 8.3 | 36.8 | 1.9 | 5.3 | 4.4 | 7 | – | – | – | – | – | – | considerable resistance | –
10 | Cc1cc(Cl)ccc1OC(C)C(=O)O (stereo not drawn) [mecoprop] | – | – | – | – | – | – | – | – | lower binding | lower binding | – | lower binding | – | –
11 | CC(Oc1ccc(Cl)cc1Cl)C(=O)O (stereo not drawn) [dichlorprop] | – | – | – | – | – | – | – | – | lower binding | lower binding | – | lower binding | – | –
12 | O=C(O)Cc1c[nH]c2ccccc12 [IAA, indole‐3‐acetic acid] | – | – | – | – | – | – | 7.9 | 33 | – | – | 12.6 | – | – | 4
13 | Nc1c(F)c(-c2ccc(Cl)cc2)nc(C(=O)O)c1Cl [DAS534] | 1.2 | 4.3 | – | 10.8 | – | 0.4 | – | – | – | – | – | strong bias for binding to AtAFB5 | – | –
